In patent US10450258B2, “Substituted aromatic compounds for the treatment of pulmonary fibrosis, liver fibrosis, skin fibrosis and cardiac fibrosis” (PROMETIC PHARMA SMT LIMITED, priority 2013, dated 2019):
Entries after “also recorded” stand apart in the source; their conditions may differ.

Key:
[1] = system: collagen 1 mRNA in HK-2 cells (epithelial cells); experiment: Inhibition of collagen mRNA in TGF-β-treated HK-2 epithelial cells; type: cell-based; details: Homo sapiens, HK-2, compound 0.5 mM
Method: (§1) CTGF, collagen 1 and α-SMA are fibrotic markers produced by activated fibroblasts and by epithelial cells that undergo to epithelial-mesenchymal transition (EMT).
(§2) Table 2: Percentage of inhibition of collagen in epithelial cells (HK2 cells) and fibroblasts (NHDF) and percentage of inhibition of α-SMA in fibroblasts (NRK-49F and NHDF) has been determined for several compounds according the invention. In all cases, the mRNA of collagen and α-SMA has been measured, and the inhibition was evaluated in presence of a respective concentration of the tested compound. The compounds have been tested at different concentrations [mM]. All compounds reduce the expression of collagen and α-SMA in HK-2, NHDF and NRK-49F cells.

[2] = system: collagen 1 mRNA in NHDF cells; experiment: Inhibition of collagen mRNA in TGF-β-activated NHDF fibroblasts; type: cell-based; details: Homo sapiens, compound 0.5 mM
Method: as §1, §2

[3] = system: heart fibrosis in 5/6 nephrectomized-catheterized rats; experiment: Heart fibrosis in 5/6 nephrectomized-catheterized (5/6-Nx) rats; type: in vivo, rat (male Sprague-Dawley); details: for hydroxyproline (collagen) content in heart: FIG. 31
From the text: Implantation of a femoral catheter increases the presence of heart fibrosis in our 5/6 nephrectomized (5/6-Nx) model and it was used to assess the effect of Compound I on heart fibrosis. In summary, male 6-week old Sprague-Dawley rats were subjected to 5/6-Nx or sham operations. Briefly, two-thirds of the left kidney was removed on day 0 followed by the right total nephrectomy on day 7. A catheter was implanted via the femoral vein on day 7. Sham operated rats underwent exposition of the kidneys and removal of the perirenal fat and were used as controls. Animals that underwent the sham operation were treated with vehicle (water) and were used as controls. On day 21, rats were randomized based on their glomerular filtration rate (GFR) results. 5/6-Nx animals were treated with three times a week intravenous administration of Compound I (10 mg/kg), or with daily oral administration with Compound I (200 mg/kg). Heart fibrosis was determined by the measurement of hydroxyproline (collagen content) and by histological evaluation (HPE and Masson's trichrome staining). As mentioned, implantation of catheter for intravenous administration of compounds in catheterized 5/6 nephrectomized animals is inducing heart fibrosis compare to oral treatment (no catheter). Oral treatment is identified herein with the expression “po” that means “per os”; intravenous administration is identified with the expression “iv” for “intravenous”. As exemplified in FIG. 27, 5/6-Nx rats have weak heart lesions. However, implantation of a catheter induced a significant increase (4 times) of heart lesions (fibrosis, necrosis and inflammation).

α-SMA mRNA in NHDF cells = experiment: Inhibition of α-SMA mRNA in TGF-β-activated NHDF fibroblasts; type: cell-based; details: Homo sapiens, compound 0.5 mM
Method: as §1, §2

[4] = system: α-SMA mRNA in NRK-49F cells; experiment: Inhibition of α-SMA mRNA in TGF-β-activated NRK-49F fibroblasts; type: cell-based, rat; details: Rattus norvegicus, NRK-49F, compound 0.5 mM
Method: as §1, §2

[5] = system: bleomycin-induced pulmonary fibrosis mouse model; experiment: Bleomycin-induced pulmonary fibrosis mouse model: body weight and lung histology; type: in vivo, mouse (male C57BL6)
Method: Intratracheal instillation of the anticancer drug bleomycin into the mouse results in acute inflammation followed by a chronic fibrotic response. Therefore, evaluation of candidate antifibrotic drugs such as Compound I can be undertaken by treatment of the mice at appropriate time points and histologic, biochemical and cellular readouts may be used to monitor candidate drug efficacy in this model.
Male C57BL6 mice are administered intratracheal instillation of bleomycin sulphate (0.025 U) at day 0, randomized and administered Compound I (oral administration, 100 mg/kg and 200 mg/kg) on day 7 to day 20.
Lesions score was evaluated using HEP (Hemalun with Eosin/Ploxine) and Masson's trichrome staining. Lesions score was recorded as 1) Consolidation as shown by disrupted lung architecture (cellular and/or fibrosis) and 2) Alveolar wall as shown by thickness and shrinking outside of consolidated area.
It was therefore evaluated side-by-side with Compound I in the bleomycin-induced pulmonary fibrosis mouse model by the same protocol described in Example 4 above. Compound I (200 mg/kg) and pirfenidone (400 mg/kg) were orally administered either alone or in combination.
Lesions score was evaluated using HEP (Hemalun with Eosin/Ploxine) and Masson's trichrome staining and recorded as 1) Consolidation as shown by disrupted lung architecture (cellular and/or fibrosis), and 2) Alveolar wall as shown by thickness and shrinking outside of consolidated area.
The lesions score as determined by the percentage of leukocyte infiltration (inflammatory zone) multiplied by the percentage of collagen found in the leukocyte infiltrate was quantified by histomorphometry using Masson's trichrome staining.
Visual grading of pulmonary fibrosis was also determined according to Ashcroft's score. Briefly, the entire fields of each lung section were read by a blinded examiner, and each field was visually graded from 0 to 8. Criteria for grading lung fibrosis were as follows: Grade 0=normal lung; Grade 1=minimal fibrous thickening of alveolar or bronchiolar walls; Grade 3=moderate thickening of walls without obvious damage to lung architecture; Grade 5=increased fibrosis with definitive damage to lung structure and formation of fibrous bands or small fibrous masses; Grade 7=severe distortion of structure and large fibrous area; Grade 8=total fibrous obliteration of lung fields.

**Q.** With CCCCCc1cccc(CC(=O)[O-])c1.[Na+] [Compound I, Sodium Salt of 3-pentylphenylacetic acid] as the compound, how does the inhibition at 500 µM [1] read?
**A.** 86%

**Q.** What about the inhibition at 500 µM [2] of the same compound?
**A.** 65%

**Q.** And the “inflammation level in heart” value ([3]; intravenous 10 mg/kg three times a week, FIG. 29)?
**A.** significant reduction of inflammation

**Q.** What about the “necrosis level in heart” value ([3]; intravenous 10 mg/kg three times a week, FIG. 30) of the same compound?
**A.** significant reduction of necrosis

**Q.** What about the “hydroxyproline (collagen) content in heart” value ([3]; intravenous 10 mg/kg three times a week) of the same compound?
**A.** significant reduction

**Q.** And the “total heart lesions (histological evaluation)” value ([3]; intravenous 10 mg/kg three times a week, p<0.05, FIG. 28)?
**A.** reduces significantly

**Q.** And the “heart fibrosis (blue-colored collagen deposition, Masson's trichrome photomicrographs)” value ([3]; intravenous, FIG. 34)?
**A.** reduces fibrosis

**Q.** And the “hydroxyproline (collagen) content in heart” value ([3]; oral 200 mg/kg daily)?
**A.** significant reduction

**Q.** What about the “heart fibrosis (blue-colored collagen deposition, Masson's trichrome photomicrographs)” value ([3]; oral, FIGS. 32 and 33) of the same compound?
**A.** reduces fibrosis

**Q.** What about the inhibition at 500 µM (α-SMA mRNA in NHDF cells) of the same compound?
**A.** 99%

**Q.** And the inhibition at 500 µM [4]?
**A.** 85%

**Q.** What about the body weight loss ([5]; oral 200 mg/kg, day 7 to day 20, FIG. 1) of the same compound?
**A.** reduced this body weight loss

**Q.** And the “recovery of the body weight loss” value ([5]; oral 100 and 200 mg/kg vs vehicle (Bleo), FIG. 1 legend)?
**A.** recovery of the body weight loss

**Q.** What about the “histological lesions score of lungs (HEP and Masson's trichrome)” value ([5]; oral 100 and 200 mg/kg, day 7 to day 20, FIG. 2) of the same compound?
**A.** significant reduction of lesions; also recorded: reduced histological lesions in a dose-dependent manner

**Q.** And the “lesions and fibrosis in lungs (photomicrographs)” value ([5]; oral 100 and 200 mg/kg, FIG. 3)?
**A.** reduced lesions and fibrosis in lungs

**Q.** And the “lesions score: percentage of leukocyte infiltration multiplied by percentage of collagen in the leukocyte infiltrate (histomorphometry, Masson's trichrome)” value ([5]; oral Compound I 200 mg/kg, FIG. 9)?
**A.** significantly reduced

**Q.** What about the “percentage of lungs affected by bleomycin” value ([5]; oral, Compound I 200 mg/kg, pirfenidone 400 mg/kg, alone or combined, FIG. 7) of the same compound?
**A.** lower

**Q.** And the “histological lesion score of lungs (HEP and Masson's trichrome)” value ([5]; oral, Compound I 200 mg/kg, pirfenidone 400 mg/kg, alone or combined, FIG. 8)?
**A.** significantly reduced histological lesions

**Q.** What about the “visual grading of pulmonary fibrosis (Ashcroft's score)” value ([5]; oral, Compound I 200 mg/kg, pirfenidone 400 mg/kg, alone or combined, FIG. 11) of the same compound?
**A.** reduced

**Q.** And the “lesions and fibrosis in lungs (photomicrographs stained with HEP)” value ([5]; oral, Compound I 200 mg/kg, pirfenidone 400 mg/kg, FIG. 10)?
**A.** reduced lesions and fibrosis in lungs
